Columns and labels:
[1] = VIS spectra of dye after coupling to a protein (aggregation in the protein conjugate); details: FIG. 1
[2] = protein conjugate vs free dye; cited from earlier work

CC(C=CC1=[N+](CCCCCC(=O)O)c2ccc(S(=O)(=O)[O-])cc2C1(C)C)=CC=C1N(CCCCCC(=O)O)c2ccc(S(=O)(=O)[O-])cc2C1(C)C.[Na+] [Example 1, 1-(5-carboxypentyl)-2-[5-(l-(5-carboxypentyl)-1,3-dihydro-3,3-dimethyl-5-sulpho-2H-indole-2-ylidene)-3-methylpenta-1,3-dienyl]-3,3-dimethyl-5-sulpho-3H-indolium-inner Salt, Sodium Salt]
VIS spectrum curve shape (monomer / dimer band) [1]: typical curve shape for a monomer

CC(C=CC1=[N+](CCCCCC(=O)O)c2ccc(S(=O)(=O)[O-])cc2C1(C)C)=C1N(CCCCCC(=O)O)c2ccc(S(=O)(=O)[O-])cc2C1(C)C.[Na+] [Example 3, 1-(5-carboxypentyl)-2-[3-(1,3-dihydro-1-(5-carboxypentyl)-3,3-dimethyl-5-sulpho-2H-indole-2-ylidene)-3-methylprop-1-enyl]-3,3-dimethyl-5-sulpho-3H-indolium Hydroxide, Inner Salt, Sodium Salt]
decrease of fluorescence quantum yield of the protein conjugate compared with free, unconjugated dye [2]: around ¼
